Data reported in ChEMBL document CHEMBL1821712, “Antimalarial β-carbolines from the New Zealand ascidian Pseudodistoma opacum” (J Nat Prod, 2011).

Columns and labels:
Leishmania donovani = assay: Antiparasitic activity against Leishmania donovani MHOM/ET/67/L82 amastigotes/axenic stage forms incubated for 72 hrs by Alamar Blue staining based fluorometric assay; type: functional, organism-based; conditions: MHOM/ET/67/L82, 72 h
[1] = test system: Trypanosoma brucei rhodesiense; assay: Antiparasitic activity against Trypanosoma brucei rhodesiense STIB 900 trypomastigotes stage forms incubated for 72 hrs by Alamar blue staining based fluorometric assay; type: functional, organism-based; conditions: STIB 900, 72 h
Trypanosoma cruzi = assay: Antiparasitic activity against Trypanosoma cruzi Tulahuen C4 amastigotes stage forms incubated for 96 hrs by beta-galactosidase reporter gene assay; type: functional, organism-based; conditions: Tulahuen C4, 96 h
L6 = assay: Cytotoxicity against rat L6 cells incubated for 72 hrs by Alamar Blue staining based fluorometric assay; type: cell-based; conditions: L6, 72 h
Plasmodium falciparum [2] = assay: Antiparasitic activity against Plasmodium falciparum K1 IEF stage forms incubated for 72 hrs by Alamar Blue staining based fluorometric assay; conditions: K1, 72 h
Plasmodium falciparum [3] = assay: Antiparasitic activity against chloroquine-resistant Plasmodium falciparum Dd2; type: functional, organism-based
Plasmodium falciparum [4] = assay: Antiparasitic activity against chloroquine-sensitive Plasmodium falciparum 3D7; type: functional, organism-based

Row | IC50 [1] | IC50 (Trypanosoma cruzi) | Structure (SMILES) | IC50 (Leishmania donovani) | IC50 (L6) | IC50 (Plasmodium falciparum [2]) | IC50 (Plasmodium falciparum [3]) | IC50 (Plasmodium falciparum [4])
1 | 12 µM | 110 µM | N=C(N)NCCCCc1nccc2c1[nH]c1ccccc12 | > 200 µM | 84 µM | 6.4 µM | – | –
2 | 7.7 µM | 130 µM | N=C(N)NCCCc1nccc2c1[nH]c1ccccc12 | > 200 µM | 101 µM | 7.8 µM | – | –
3 | 17 µM | 51 µM | O=C1c2ccccc2C(=O)N1CCCC1NCCc2c1[nH]c1ccccc21 (stereo not given) | 150 µM | 110 µM | 14 µM | – | –

More lines, now with the values behind:

Row | Structure (SMILES) | IC50 [1] | IC50 (Trypanosoma cruzi) | IC50 (Leishmania donovani) | IC50 (L6) | IC50 (Plasmodium falciparum [2]) | IC50 (Plasmodium falciparum [3]) | IC50 (Plasmodium falciparum [4])
4 | CCCCCCCCCCCCCCCCOP(=O)([O-])OCC[N+](C)(C)C [MILTEFOSINE] | – | – | 0.53 µM | – | – | – | –
5 | COc1cc([C@@H]2c3cc4c(cc3[C@H](O)[C@H]3COC(=O)[C@H]23)OCO4)cc(OC)c1OC [PODOFILOX] | – | – | – | 0.019 µM | – | – | –
6 | N=C(N)NCCC[C@H]1NCCc2c1[nH]c1cc(Br)ccc21 | – | – | – | – | – | 5.4 µM | 3.5 µM
7 | N=C(N)NCCCCc1nccc2c1[nH]c1cc(Br)ccc12 [OPACALINE A] | 30 µM | 86 µM | 130 µM | 79 µM | 2.5 µM | – | –
8 | N=C(N)NCCCCc1nccc2c3ccc(Br)cc3n(O)c12 [OPACALINE B] | 27 µM | 107 µM | 101 µM | 120 µM | 4.5 µM | – | –
9 | O=C(Cn1ccnc1[N+](=O)[O-])NCc1ccccc1 [BENZNIDAZOLE] | – | 1.8 µM | – | – | – | – | –
